Reference: publication PMC12747932, “Crystal structures of Kif2A complexed with WDR5 reveal the structural plasticity of WIN-S7 sites” (Acta Biochimica et Biophysica Sinica, 2025)

Biological target: T1, human WDR5 (residues 24–334) (Homo sapiens, UniProt P61964)
T1 construct: human WDR5 seven tandem WD-40 domain (residues 24–334); GST (N, cleaved yes); made in house; host or cells: Escherichia coli BL21 (DE3)
Assay: ITC assay of Kif2A peptides titrated into WDR5
Conditions: wild-type WDR5 0.05 mM, peptide approx. 1 mM, 20 mM Tris-HCl, 200 mM NaCl, pH 7.5, 20°C, mean±SD of a minimum of two experiments, N.D. = not detectable binding
From the text: The DNA fragment encoding the human WDR5 seven tandem WD-40 domain (residues 24–334) was amplified via PCR from the human brain and bone marrow cDNA library and cloned and inserted into the pGEX-4T1 vector, which was modified to include an N-terminal GST tag and a TEV cleavage site (ENLYFQ/GSHM) (where ‘/’ denotes the cleavage site). The Y191F variant of WDR5 was generated using a MutanBEST kit (TaKaRa, Dalian, China) and verified via DNA sequencing. Proteins were expressed in Escherichia coli BL21 (DE3) cells (Novagen, Darmstadt, Germany) cultured in Luria-Bertani medium at 37°C. Protein expression was induced with 0.2 mM isopropyl β-D-1-thiogalactopyranoside (IPTG) once the optical density at 600 nm (OD600) reached 0.8, and the cultures were shifted to 16°C for incubation for 18 h. The cells were harvested by centrifugation and resuspended in Buffer A (20 mM Tris-HCl, 1 M NaCl, pH 8.0) supplemented with DNase I (10 U) and cOmplete, EDTA-free Protease Inhibitor Cocktail (1 tablet dissolved in 1 mL of sterile water), after which they were lysed by ultrasonication. […]
ITC assays were performed on a Microcal PEAQ-ITC instrument (Malvern Panalytical, Westborough, USA) at 20°C as previously described. Protein concentrations were quantified by measuring the absorbance at 280 nm and diluted to 0.05 mM with Buffer E. Peptides were prepared at approximately 1 mM in the same buffer. […]

Sequence: GSAAARPSQ [Kif2A ^R117A, Kif2A 114–122 peptide with R117A mutation, …]
- KD, dissociation constant: completely abolished binding
